Results on nine compounds are retold here after patent publication US5196577A, “Compound marked with tritium, its preparation and its use in particular in the determination of the affinity of retinoids for their nuclear receptors and their cytosolic binding protein” (Centre International de Recherches Dermatologiques, priority 1988, dated 1993).

Series [1] concerns the target T1, CRABP (Rattus norvegicus, UniProt P62966).
T1 construct: rat testicle cytosol containing CRABP; from tissue
The series can be described thus: Direct fixing (saturation) of tritiated ligand on CRABP in rat testicle cytosol. The note with it: for non-specific fixing as part of total fixing on CRABP: 1 μM cold homolog ligand; for concentration of CRABP in rat testicle cytosol found with the marked retinoid: saturating concentration of marked retinoid. The format is binding. As for the experimental part:
The difference (- ) represents the specific bond.
The total fixing (non-specific+specific (1-1) is obtained by incubation of increasing concentrations (up to a maximum of 125 nM) of the claimed compound with a constant quantity (0.3 ml) of a rat testicle homogenate (CRABP-rich organ). The non-specific fixing of the tritiated compound is determined in parallel, by measuring the fixing with increasing concentrations of the radioactive ligand in the presence of a large excess (1 μM) of cold homolog ligand (.quadrature.-.quadrature.). An incubation time of two hours is necessary for the establishment of balanced conditions.
Once the balance is achieved, the tritiated CRABP-ligand complex is separated from the non-bonded ligand by filtration on a Sephadex G25 exclusion gel column (BIO-Rad econo columns, 0.5× 20 cm): the complex is eluted (elution peak at 2.5 ml), while the non-bonded ligand is retained in totality on the column. […] The elution is done directly in scintillation tubes and the radioactivity is measured by counting.
The difference between the total fixing curve (- )and the non-specific fixing curve (.quadrature.-.quadrature.) gives the specific fixing curve ( - ). Analysis of this curve provides the dissociation constant with the balance (Kd), which is the concentration of product necessary to saturate 50% of the CRABP. This constant is a measurement of the affinity of the ligand for its binding protein, with the Kd being inversely proportional to the affinity (the lower the Kd, the greater the affinity).
The concentration of CRABP in the rat testicle cytosol used for the experiment can be determined in binding experiments where the marked retinoids are used at a saturating concentration.

The nature of series [2]: Stability of ligand (general statements). Conditions: statement in words, no data. The format is physicochemical.
The test system of series [3] is retinoic acid nuclear receptors (RARs). The series can be described thus: Direct fixing of tritiated ligand on RARs of F9 cells (HPSEC of nucleosol). The format is binding, murine. The note with it: 200 nM tritiated ligand; for ligand fixed to the RARs per cell: FIG. 2; for specific fixing on RARs in presence of excess cold homolog ligand: 100-fold excess (20000 nM) cold ligand, FIG. 1. As to the method:
(§1) Cultures of F9 cells of murin embryonic carcinoma (normally four 90 mm dishes containing in total 2-4×10^7 cells per incubation condition) were washed once with PBS (saline phosphate buffer) and incubated for 3 hours in a medium, without serum, supplemented with the marked retinoid in the absence or the presence of a cold retinoid homolog or heterolog (to verify the specificity and for comparison experiments). The cells were then detached with a trypsin EDTA mixture and numbered with a Burker hemocytometer. The nucleosol containing RARs was extracted from the purified nuclei using the method described by Daly and Redfern (1987) (that is, after treatment using DNAase and NaCl 0.6M), and analyzed using high performance exclusion chromatography (HPSEC). 50 μl of marked extract were injected on a 9×250 mm GF250 column (Dupont de Nemours). The elution was carried out in a buffer 0.3M KH2 PO4 pH 7.8 at a rate of 1 ml/min. The protein content was followed by measuring the optical density at 280 nm. 28 fractions of 0.3 ml each were collected and counted in Picofluor (Packard) scintillating agent. For each retinoid concentration, the number of bonded molecules was determined using the surface of the radioactivity peak and the calculated concentration of demi-saturation (C50). […] The dose-response curves and the competition curves were analyzed on a computer through non-linear regression using the various forms of the Clark equation.
When the above-describe method is used and the F9 cells are incubated with the compound of example 1 at a concentration of 200 nM, a single radioactivity peak is observed in the nuclear extract (FIG. 1B). The molecular weight corresponding to the average fraction of the peak is approximately 45 kDa, a number close to the molecular weight of human RARs, as has been calculated from the sequence of their DNAc (Petkovich et al, 1987; Brand et al, 1988), and is compatible with the 4S sedimentation coefficient of murin receptors (Daly & Redfer, 1987). The fixing is specific since it is abolished when the cells are coincubated with an excess of 100 times of the cold compound I (FIG. 1B). There is no CRABP in the nucleosoilc extract of F9, as already underlined by Daly and Redfern (1987).
It can be noted that the radioactive peak elutes at the same position as with the compound of example 1.
The two compounds were used at a concentration of 200 nM. The quantity of ligand bonded to the RARs is expressed in molecules per cell.
To determine the concentration of the compound of example 1 giving 50% saturation of the RARs (C50), a saturation curve has been traced expressing the surface of the radioactive peak as a function of varied concentrations of the compound of example 1. The C50 is between 0.5 and 2 nM.
(In general: Size exclusion chromatography separates by hydrodynamic size, large species first.)

Series [4] has the same test system. The series can be described thus: Competition with the tritiated compound of example 1 for RARs in F9 cells (HPSEC of nucleosol). The format is binding, murine. The note with it: for IC50: competition with 2 nM tritiated compound of example 1, incubation of 3 hours, read-out: AFFINITY RARs:IC50. As to the method: as §1
In view of its stability and its excellent affinity for the RARs, the compound of example 1 in principle enables the determination by competition of the affinity of no matter which retinoid for the RARs.
The […] profiles are obtained after incubation of the F9 cells with 2×10^-9 M of the compound of example 1 in the absence (- ) or in the presence of 10^-9 M(.quadrature.-.quadrature.), 10^-8 M (- ), 10^-7 M (Δ-Δ), 10^-6 M (- ) of cold competitors. I=the unmarked compound of example 1. RA=retinoic acid. For each competition concentration, the peak surface is expressed as a percentage of the surface obtained with the compound of example 1 without competition.
By measuring the surface of the radioactive peak for each concentration of cold competition, it is possible to trace the competition sigmoids. Data processing of these curves enables the determination of the IC50 (50% inhibiting concentration) of each retinoid.

Another series concerns F9 cells. The series can be described thus: Production of secreted plasminogen activator by differentiating F9 cells (biological activity, CPA50). The format is cell-based, murine. Conditions: for EC50: Mus musculus, read-out: BIOLOGICAL ACTIVITY CPA50. The source says:
The biological activity of the retinoids can be measured on the F9 cells by quantifying the production of the plasminogen activator secreted consecutively with the differentiation of said cells, caused by the retinoids. CPA50 is the concentration of retinoids causing an induction of 50% of the maximum of the secreted plasminogen activator. By comparing the IC50 and CPA50 values on Table 1, it can be noted that there is an excellent correlation between the affinity of the retinoids for the RARs and their biological activity (see also the straight regression line of FIG. 4). The only exception is retinoic acid itself. […] In effect, the IC50 measurement is carried out after an incubation of 3 hours, while the CPA50 measurement is carried out after a incubation of 3 days.

Series [5] has as its target T1, CRABP. The series can be described thus: Competition with the claimed marked compound for CRABP. The format is binding. As for the experimental part:
These competition experiments are carried out in the following manner: a fixed quantity of radioactive ligand (corresponding substantially to the demi-saturation, in our case 4 nM) is mixed with increasing quantities of cold ligand (non-radioactive). Then the binding protein is added and the quantity of radioactive ligand fixed to the balance is determined (in % of the initial fixing in the absence of cold ligand, for the quantity of CRABP under consideration).
From the competition curves, the IC50 (concentration of cold ligand reducing the attachment of the tritiated ligand by 50%) is determined. This IC50 value enables the calculation in each case of the dissociation constant from the balance (Kd) for the cold ligand.

For series [6] the following is noted: by radiolysis, oxidation and photolysis; background statement; cited from earlier work.
Where [7] appears, read: 72 h, concentration causing induction of 50% of the maximum of secreted plasminogen activator, F9 cells, incubation of 3 days.
[8] abbreviates: Table 1, Kd calculated from competition IC50, radioligand about 4 nM, read-out: AFFINITY CRABP:Kd.

Usually IC50 stands for the midpoint of a concentration-inhibition curve. As usually defined, the Kd is the constant that tells how readily two partners part at equilibrium.

“Also recorded” adds a separate entry of the source. Where two headings read alike, the source gives them in different places.

T1 sequence (P62966 whole entry): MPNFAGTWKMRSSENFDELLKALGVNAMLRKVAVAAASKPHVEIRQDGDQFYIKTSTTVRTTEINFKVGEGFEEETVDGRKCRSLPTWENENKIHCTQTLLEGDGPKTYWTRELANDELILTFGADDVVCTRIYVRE

Take `CC1(C)CCC(C)(C)c2cc3cc(-c4ccc(C(=O)O)cc4)ccc3cc21` [Example 1, 4-(5,6,7,8-tetrahydro-5,5,8,8-tetramethyl-2-anthracenyl) benzoic acid marked with tritium]: the “character of non-specific fixing on CRABP” value on CRABP [1] (in the range of concentrations used, rat testicle) is “linear and non-saturable”. At CRABP [1] (rat testicle), the “character of specific fixing on CRABP” value is “saturable and reversible”; the “non-specific fixing as part of total fixing on CRABP” value was “less than 10%”. Also, the “concentration of CRABP in rat testicle cytosol found with the marked retinoid” value at CRABP [1] is 10-12 pmol/mg protein. For the same compound, the “stability of the ligand” value in series [2] is “very stable”. The “ligand fixed to the RARs per cell” value in series [3] was “approximately 4,000 molecules per cell”.
With `CC1(C)CCC(C)(C)c2cc3cc(-c4ccc(C(=O)O)cc4)ccc3cc21` [Compound I, 4-(5,6,7,8-tetrahydro-5,5,8,8-tetramethyl-2-anthracenyl) benzoic acid], the IC50 in series [4] (F9 cells) amounted to 0.8 nM. Further, the “affinity for the RARs relative to retinoic acid” value in series [4] (from IC50 of Table 1) is given as “six times”. Further, the EC50 with F9 cells (setting [7]) was 1 nM. The Kd on CRABP [5] (setting [8]) is 4 nM. Further, the “specific fixing on RARs in presence of excess cold homolog ligand” value in series [3] is recorded as “abolished”.
As for `CC1(C)CCC(C)(C)c2cc(C(=O)Nc3ccc(C(=O)O)cc3)ccc21` [Compound VII, 4(5,6,7,8-tetrahydro-5,5,8,8-tetramethyl-2-naphthamido) benzoic acid], the IC50 in series [4] (F9 cells) stood at 76 nM. Moreover, the EC50 in the series on F9 cells (setting [7]) was 85 nM. Besides, on CRABP [5] (setting [8]), the Kd is 200 nM.
For `CC1(C)CCC(C)(C)c2cc(-c3ccc4cc(C(=O)O)ccc4c3)ccc21` [Compound V, 6(5,6,7,8-tetrahydro-5,5,8,8-tetramethyl-2-naphthyl)-2-naphthoic acid], in that order: 12 nM, 66 nM and 20 nM.
For `CC1=C(/C=C/C(C)=C/C=C/C(C)=C/C(=O)O)C(C)(C)CCC1` [Retinoic acid], on CRABP [1] (rat testicle), the “non-specific fixing as part of total fixing on CRABP” value is “approximately 25%”. For the same compound, the “concentration of CRABP in rat testicle cytosol found with the marked retinoid” value at CRABP [1] is 10-12 pmol/mg protein. Besides, the “stability of the ligand” value in series [2] was “high instability”. In addition, the “degradation of retinoic acid” value in series [6] is recorded as “rapidly degraded”. Moreover, in series [4] (F9 cells), the IC50 worked out at 5 nM. For the same compound, the EC50 with F9 cells (F9, 72 h) stood at 350 nM. Further, in series [3], the “specific fixing on RARs in presence of excess cold homolog ligand” value is given as “the peak is not observed” and the “ligand fixed to the RARs per cell” value is reported as “approximately 4,000 molecules per cell”.
As for `CC1=C(/C=C/C(C)=C/C=C/C(C)=C/CO)C(C)(C)CCC1` [Retinol], the IC50 in series [4] (F9 cells) is 1400 nM. For the same compound, in the series with F9 cells (setting [7]), the EC50 came out at 2500 nM. On CRABP [5] (setting [8]), the dissociation constant Kd was 600 nM.
Turning to `CC1(C)CCC(C)(C)c2cc(-c3cc4ccc(C(=O)O)cc4s3)ccc21` [Compound IV, 2(5,6,7,8-tetrahydro-5,5,8,8-tetramethyl-2-naphthyl)-6-benzo(b)thiophene carboxylic acid], in series [4] (F9 cells), the IC50 amounted to 77 nM. The EC50 with F9 cells (F9, 72 h) stood at 53 nM. At CRABP [5], this compound displayed a Kd of 2 nM.
On the same counts, the results for `CC1(C)CCC(C)(C)c2cc(-c3cc4ccc(C(=O)O)cc4o3)ccc21` [Compound VI, 2(5,6,7,8-tetrahydro-5,5,8,8-tetramethyl-2-naphthyl)-6 benzo(b)furan carboxylic acid] are 770 nM, 670 nM and 200 nM.
For `Cc1c(C(=O)O)cc(S)c2cc(-c3ccc4c(c3)C(C)(C)CCC4(C)C)ccc12` [Compound VIII, 1methyl-4-thiol-6-(5,6,7,8-tetrahydro-5,5,8,8-tetramethyl-2-naphthyl)-2-nphthoic acid], the “affinity for the RARs (in words)” value in series [4] (F9 cells, FIG. 4) was “below the threshold of detection”. Further, in series [4] (F9 cells), the IC50 is over 10000 nM. In the series on F9 cells (F9 cells, FIG. 4), the “biological activity (in words)” value is “biologically inactive; also recorded: below the threshold of detection”. Besides, the EC50 in the series with F9 cells (F9, 72 h) was over 10000 nM. Moreover, the Kd at CRABP [5] came out at 200 nM.
